In patent US8173689B2 (Novartis AG, priority 2006, dated 2012):
Like-named read-outs stand apart in the source and are kept apart here.

Columns and labels:
[1] = target: T1, cytoplasmic domain of the human CSF-1R (Homo sapiens, UniProt P07333); test: In vitro kinase assay for colony stimulating factor-1 receptor (AlphaScreen); format: biochemical; details: tested at about 1 μM, read-out: CSF-1R percent inhibition
T1 construct: Recombinant protein corresponding to the cytoplasmic domain of the human CSF-1R; purchased Invitrogen Corporation, Carlsbad, Calif; PV3249
T1 sequence (P07333 539-972 limits assumed): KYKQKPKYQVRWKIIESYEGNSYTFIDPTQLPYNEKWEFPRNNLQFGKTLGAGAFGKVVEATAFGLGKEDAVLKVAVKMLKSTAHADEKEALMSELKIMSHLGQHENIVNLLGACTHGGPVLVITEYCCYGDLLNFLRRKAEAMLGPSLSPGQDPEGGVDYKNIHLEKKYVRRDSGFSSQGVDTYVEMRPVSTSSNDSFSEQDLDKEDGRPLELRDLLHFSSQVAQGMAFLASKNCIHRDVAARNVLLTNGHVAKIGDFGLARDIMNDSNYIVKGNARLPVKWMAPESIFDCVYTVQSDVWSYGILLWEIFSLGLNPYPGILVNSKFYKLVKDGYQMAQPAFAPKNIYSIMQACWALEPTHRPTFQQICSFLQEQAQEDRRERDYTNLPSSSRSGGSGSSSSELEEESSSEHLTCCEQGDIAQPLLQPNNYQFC
Summary of the method: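 AlphaScreen read-out (PT66 anti-pTyr acceptor beads, streptavidin donor beads, overnight incubation) measured phosphorylated peptide product. The product was formed by the human CSF-1R cytoplasmic domain at 4 nM with 1 µM ATP in Mg2+/Mn2+ HEPES buffer, pH 7.5. Compound dilution series were 3-fold, starting at 25 µM.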

[2] = target: T2, kinase domain of cKIT (Homo sapiens, UniProt P10721); test: Inhibition of cKIT kinase signaling in an in vitro biochemical assay (alphascreen); details: tested at about 1 μM, read-out: cKit percent inhibition
T2 construct: The kinase domain of cKIT was assayed in 50 mM Hepes; purchased Upstate 14-559
T2 sequence (P10721 589-937 limits assumed): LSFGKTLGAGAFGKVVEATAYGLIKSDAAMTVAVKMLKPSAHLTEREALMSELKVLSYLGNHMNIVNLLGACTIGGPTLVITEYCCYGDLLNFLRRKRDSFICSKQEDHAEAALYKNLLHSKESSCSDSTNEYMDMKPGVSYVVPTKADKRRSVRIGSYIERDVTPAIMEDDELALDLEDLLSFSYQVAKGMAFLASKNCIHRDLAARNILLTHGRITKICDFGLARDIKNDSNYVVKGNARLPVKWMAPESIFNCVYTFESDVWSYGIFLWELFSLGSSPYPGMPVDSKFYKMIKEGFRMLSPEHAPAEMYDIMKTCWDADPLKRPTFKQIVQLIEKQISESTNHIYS

[3] = target: T3, kinase domain of PDGFRβ (Homo sapiens, UniProt P09619); test: Inhibition of PDGFRb kinase signaling in an in vitro biochemical assay (alphascreen); details: tested at about 1 μM, read-out: PDGFRβ percent inhibition
T3 construct: The kinase domain of PDGFRβ was assayed in 50 mM Hepes; purchased Invitrogen P3082
T3 sequence (P09619 600-962 limits assumed): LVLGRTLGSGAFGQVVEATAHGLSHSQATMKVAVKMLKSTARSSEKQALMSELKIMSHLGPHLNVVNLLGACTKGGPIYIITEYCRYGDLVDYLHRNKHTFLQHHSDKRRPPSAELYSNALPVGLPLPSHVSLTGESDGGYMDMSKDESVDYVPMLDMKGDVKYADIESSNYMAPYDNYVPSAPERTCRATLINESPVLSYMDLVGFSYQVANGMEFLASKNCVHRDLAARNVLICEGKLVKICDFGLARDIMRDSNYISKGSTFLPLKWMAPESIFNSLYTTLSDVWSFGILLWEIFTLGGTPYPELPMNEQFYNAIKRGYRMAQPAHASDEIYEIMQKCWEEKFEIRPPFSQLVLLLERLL

[4] = test system: MNFS60 (murine AML cells); test: Cell viability assay in MCSF dependent MNFS60 cells (Cell Titer Glo); format: cell-based; details: Mus musculus, tested at about 1 μM, read-out: M-NFS-60 CP percent inhibition
Summary of the method: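 Compounds were serially diluted 3-fold in DMSO to 500× final and added to cells with MCSF at 10 ng/ml final. After 72 hrs at 37° C. under 5% CO2, viable cells were quantified by CellTiter-Glo luminescence; triplicate wells gave EC50 values by curve fitting.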

inhibition at 1 µM ([1]; compounds of Table 3) [%]	inhibition at 1 µM ([2]; compounds of Table 3) [%]	inhibition at 1 µM ([3]; compounds of Table 3) [%]	inhibition at 1 µM [1] [%]	inhibition at 1 µM [2] [%]	inhibition at 1 µM [3] [%]	Structure (SMILES)	inhibition at 1 µM ([4]; compounds of Table 3) [%]	inhibition at 1 µM ([4]; MCSF dependent MNFS60 cells) [%]
100	10	15				CNC(=O)c1cc(Oc2ccc3nc(NCCC4CC4)sc3c2)ccn1 [Example 290, 4-(2-(2-cyclopropylethylamino)benzo[d]thiazol-6-yloxy)-N-methylpicolinamide]	2	
			99	6	0	CNC(=O)c1cc(Oc2ccc3nc(NCC4CCCN(C(C)=O)C4)sc3c2)ccn1 (centres unmarked) [Example 306, 4-(2-((1-acetylpiperidin-3-yl)methylamino)benzo[d]thiazol-6-yloxy)-N-methylpicolinamide]		48
			99	13	12	CNC(=O)c1cc(Oc2ccc3nc(NCCc4ccccn4)sc3c2)ccn1 [Example 314, N-methyl-4-(2-(2-(pyridin-2-yl)ethylamino)benzo[d]thiazol-6-yloxy)picolinamide]		20
			98	17	0	CNC(=O)c1cc(Oc2ccc3nc(NCCc4cccnc4)sc3c2)ccn1 [Example 315, N-methyl-4-(2-(2-(pyridin-3-yl)ethylamino)benzo[d]thiazol-6-yloxy)picolinamide]		27
			100	16	20	CNC(=O)c1cc(Oc2ccc3nc(N[C@H]4CCC[C@@H]4O)sc3c2)ccn1 [Example 320, 4-(2-((1S,2S)-2-hydroxycyclopentylamino)benzo[d]thiazol-6-yloxy)-N-methylpicolinamide]		25
			99	18	11	CNC(=O)c1cc(Oc2ccc3nc(N[C@H]4CCC[C@H]4O)sc3c2)ccn1 [Example 322, 4-(2-((1S,2R)-2-hydroxycyclopentylamino)benzo[d]thiazol-6-yloxy)-N-methylpicolinamide]		21
			99	21	19	CNC(=O)c1cc(Oc2ccc3nc(N[C@@H]4CCC[C@H]4O)sc3c2)ccn1 [Example 324, 4-(2-((1R,2R)-2-hydroxycyclopentylamino)benzo[d]thiazol-6-yloxy)-N-methylpicolinamide]		15
			94	23	14	CNC(=O)c1cc(Oc2ccc3nc(N[C@H]4CCCN(C(=O)c5ccccc5)C4)sc3c2)ccn1 [Example 336, (S)-4-(2-(1-benzoylpiperidin-3-ylamino)benzo[d]thiazol-6-yloxy)-N-methylpicolinamide]		17

The remaining lines, values behind:

Structure (SMILES)	inhibition at 1 µM ([1]; compounds of Table 3) [%]	inhibition at 1 µM ([2]; compounds of Table 3) [%]	inhibition at 1 µM ([3]; compounds of Table 3) [%]	inhibition at 1 µM [1] [%]	inhibition at 1 µM [2] [%]	inhibition at 1 µM [3] [%]	inhibition at 1 µM ([4]; compounds of Table 3) [%]	inhibition at 1 µM ([4]; MCSF dependent MNFS60 cells) [%]
O[C@@H]1CCCC[C@H]1Nc1nc2ccc(Oc3ccnc(-c4ccc(F)cc4)c3)cc2s1 [Example 288, (1R,2R)-2-(6-(2-(4-fluorophenyl)pyridin-4-yloxy)benzo[d]thiazol-2-ylamino)cyclohexanol]	100	78	24				70	
C[C@H](Nc1nc2ccc(Oc3ccnc(C(=O)NN(C)C)c3)cc2s1)C1CCCCC1 [Example 289, (S)-4-(2-(1-cyclohexylethylamino)benzo[d]thiazol-6-yloxy)-N',N'-dimethylpicolinohydrazide]	99	28	2				0	
CNC(=O)c1cc(Oc2ccc3nc(N[C@@H]4CCCC[C@H]4NC(C)=O)sc3c2)ccn1 [Example 298, 4-(2-((1R,2R)-2-acetamidocyclohexylamino)benzo[d]thiazol-6-yloxy)-N-methylpicolinamide]	98	13	0				41	
CNC(=O)c1cc(Oc2ccc3nc(N[C@H]4CCCC[C@H]4NS(C)(=O)=O)sc3c2)ccn1 [Example 300, N-methyl-4-(2-((1S,2R)-2-(methylsulfonylamido)cyclo-hexylamino)benzo[d]thiazol-6-yloxy)picolinamide]				99	2	0		14
CNC(=O)c1cc(Oc2ccc3nc(N[C@H]4CCCN(C(C)=O)C4)sc3c2)ccn1 [Example 304, (S)-4-(2-(1-acetylpiperidin-3-ylamino)benzo[d]thiazol-6-yloxy)-N-methylpicolinamide]				100	9	18		23
CNC(=O)c1cc(Oc2ccc3nc(N[C@H]4[C@H]5CC[C@H](C5)[C@H]4CO)sc3c2)ccn1 [Example 325, 4-(2-((1S,3R,4R)-3-(hydroxymethyl)bicyclo[2.2.1]heptan-2-ylamino)benzo[d]thiazol-6-yloxy)-N-methylpicolinamide]				100	27	43		66
CNC(=O)c1cc(Oc2ccc3nc(NCC4CCCN(C(=O)NC(C)C)C4)sc3c2)ccn1 (centres unmarked) [Example 337, 4-(2-((1-(isopropylcarbamoyl)piper-idin-3-yl)methylamino)benzo[d]thiazol-6-yloxy)-N-methylpicolinamide]				95	14	0		19
CNc1cc(Oc2ccc3nc(NCC4CCCCC4)sc3c2)ccn1 [Example 338, N-(cyclohexylmethyl)-6-(2-(methylamino)pyridin-4-yloxy)benzo[d]thiazol-2-amine]				100	51	52		44
COCCNc1cc(Oc2ccc3nc(NCC4CCCCC4)sc3c2)ccn1 [Example 343, N-(cyclohexylmethyl)-6-(2-(2-methoxyethylamino)pyridin-4-yloxy)benzo[d]thiazol-2-amine]				100	59	28		57
CC[C@H](C)[C@@H](CO)Nc1nc2ccc(Oc3ccnc(-c4cnn(C)c4)c3)cc2s1 [Example 349, (2S,3S)-3-methyl-2-(6-(2-(1-methyl-1H-pyrazol-4-yl)pyridin-4-yloxy)benzo[d]thiazol-2-ylamino)pentan-1-ol]				100	77	73		100
Cn1cc(-c2cc(Oc3ccc4nc(N[C@H]5c6ccccc6C[C@H]5O)sc4c3)ccn2)cn1 [Example 350, (1S,2R)-1-(6-(2-(1-methyl-1H-pyrazol-4-yl)pyridin-4-yloxy)benzo[d]thiazol-2-ylamino)-2,3-dihydro-1H-inden-2-ol]				100	100	91		100
Cn1cc(-c2cc(Oc3ccc4nc(N[C@H](CO)Cc5ccccc5)sc4c3)ccn2)cn1 [Example 351, (S)-2-(6-(2-(1-methyl-1H-pyrazol-4-yl)pyridin-4-yloxy)benzo[d]thiazol-2-ylamino)-3-phenylpropan-1-ol]				100	98	79		100
